Measured values taken from publication PMC10934653, “Identification of Hypoglycemic Glycolipids from Ipomoea murucoides by Affinity-Directed Fractionation, In Vitro, In Silico and Dynamic Light Scattering Analysis” (Plants, 2024).
In brackets after ≈: the same amount, converted by molar mass.

Molecular target: T1, hepatic glucose-6-phosphatase (G6Pase)
T1 construct: gene G6pc1; native, microsomal fraction from livers of starved Wistar rats; not purified; with Glucose-6-phosphate exchanger SLC37A4
Experiment: colorimetric phosphate release assay, rat liver microsomes
Assay type: biochemical
Details: 80 mM glucose-6-phosphate, 40 mM imidazole, 250 mM sucrose, pH 7, 20 °C, 20 min; positive control

O=C(/C=C/c1ccc(O)c(O)c1)O[C@@H]1C[C@](O)(C(=O)O)C[C@@H](O)[C@H]1O [chlorogenic acid]
IC50: 122.5 mg/L (≈ 346 µM)
